Columns and labels:
[1] = molecular target: human D2 receptor (Homo sapiens (Human), UniProt P14416); assay: Radioligand binding ([3H]-spiperone) to cloned receptors expressed in HEK-293 EBNA cells; details: HEK293 EBNA cell membranes expressing human D2
Method: (§1) HEK293 EBNA cells were transiently transfected with expression plasmids encoding for the human D2 or D3 or for the human 5-HT2A receptor, respectively. The cells were harvested 48 h post-transfection, washed three times with cold PBS and stored at −80° C. prior to use. The pellet was suspended in cold 50 mM Tris-HCl buffer comprising 10 mM EDTA (pH 7.4) and was homogenized with a Polytron (Kinematica AG, Basel, Switzerland) for 20-30 sec at 12.000 rpm. After centrifugation at 48.000×g for 30 min at 4° C., the pellet was resuspended in cold 10 mM Tris-HCl buffer comprising 0.1 mM EDTA (pH 7.4), homogenized, and centrifuged as above. This pellet was further resuspended in a smaller volume of ice cold 10 mM Tris-HCl buffer comprising 0.1 mM EDTA (pH 7.4) and homogenized with a Polytron for 20-30 sec at 12.000 rpm. The protein content of this homogenate was determined with the Bio-Rad (Bradford) Protein Assay (Biorad Laboratories GmbH, München, Germany) according to the instructions of the manufacturer using gamma globulin as the standard. This homogenate was stored at −80° C. in aliquots and thawed immediately prior to use.
(§2) Aliquots of membrane preparations were thawed at RT, resupended in assay buffer (D2, D3: 50 mM Tris-HCl, 120 mM NaCl, 5 mM MgCl2, 1 mM EDTA, 5 mM KCl, 1.5 mM CaCl2, pH=7.4; 5-HT2A: 50 mM Tris-HCl, 10 mM MgCl2, 1 mM EGTA, pH=7.4), homogenized with a Polytron for 20-30 sec at 12.000 rpm and adjusted to a final concentration of approximately 7.5 μg protein/well (D2, D3) and 15 μg protein/well (5-HT2A), respectively.
(§3) The binding affinity (Ki) of the compounds was determined using radioligand binding. Membranes were incubated in a total volume of 200 μl with a fixed concentration of radioligand (final concentration approximately 0.7 nM [^3H]-spiperone for D2, 0.5 nM [^3H]-spiperone for D3, and 1.1 nM [^3H]-ketanserin for 5-HT2A) and ten concentrations of test compound in ranging between 10 μM-0.1 nM for 1 h at RT. At the end of the incubation, the reaction mixtures were filtered on to unifilter 96-well white microplates with bonded GF/C filters (Packard BioScience, Zürich, Switzerland; preincubated for 1 h in 0.1% polyethylenimine (PEI) in assay buffer) with a Filtermate 196 harvester (Packard BioScience) and washed 3 times with cold assay buffer. The nonspecific binding was determined with equally composed reaction mixtures in the presence of 10 μM unlabelled spiperone. Per well 45 μl of Microscint 40 (Perkin Elmer, Schwerzenbach, Switzerland) was added, plates for sealed, shaken for 20 min and counted for 3 min on a Topcount Microplate Scintillation Counter (Can berra Packard SA, Zürich, Switzerland) with quenching correction.
(§4) The CPM value for each duplicate of a concentration of competing compound was averaged (y1), then the % specific binding was calculated according to the equation (((y1−non-specific)/(total binding−non-specific))×100). Graphs were plotted with the % specific binding using XLfit, a curve fitting program that iteratively plots the data using Levenberg-Marquardt algorithm. The single site competition analysis equation used was y=A+((B−A)/(1+((x/C)D))), where y is the % specific binding, A is the minimum y, B is the maximum y, C is the IC50, x is the log 10 of the concentration of the competing compound and D is the slope of the curve (the Hill Coefficient). […] The affinity constant (Ki) was calculated using the Cheng-Prusoff equation Ki=(IC50/1+([L]/Kd), where [L] is the concentration of radioligand and Kd is the dissociation constant of the radioligand at the receptor as determined by the saturation isotherm.

[2] = molecular target: human D3 receptor (Homo sapiens (Human), UniProt P35462); assay: as above; details: HEK293 EBNA cell membranes expressing human D3
Method: as §1, §2, §3, §4

[3] = molecular target: human 5-HT2A receptor (Homo sapiens (Human), UniProt P28223); assay: Radioligand binding ([3H]-ketanserin) to cloned receptors expressed in HEK-293 EBNA cells; details: HEK293 EBNA cell membranes expressing human 5-HT2A
Method: as §1, §2, §3, §4

Chain of human D2 receptor (P14416 whole entry): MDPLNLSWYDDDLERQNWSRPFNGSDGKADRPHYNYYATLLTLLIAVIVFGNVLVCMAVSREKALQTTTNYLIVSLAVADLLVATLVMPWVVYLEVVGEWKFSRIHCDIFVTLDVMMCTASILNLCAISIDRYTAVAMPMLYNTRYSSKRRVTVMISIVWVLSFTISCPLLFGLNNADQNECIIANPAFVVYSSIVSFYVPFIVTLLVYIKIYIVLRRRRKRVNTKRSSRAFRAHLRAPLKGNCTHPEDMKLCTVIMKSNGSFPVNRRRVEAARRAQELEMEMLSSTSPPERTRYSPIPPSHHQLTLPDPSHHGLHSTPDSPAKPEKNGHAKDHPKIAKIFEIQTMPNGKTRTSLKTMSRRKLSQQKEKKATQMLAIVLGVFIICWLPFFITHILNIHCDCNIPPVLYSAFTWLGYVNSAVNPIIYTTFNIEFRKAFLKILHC
Chain of human D3 receptor (P35462 whole entry): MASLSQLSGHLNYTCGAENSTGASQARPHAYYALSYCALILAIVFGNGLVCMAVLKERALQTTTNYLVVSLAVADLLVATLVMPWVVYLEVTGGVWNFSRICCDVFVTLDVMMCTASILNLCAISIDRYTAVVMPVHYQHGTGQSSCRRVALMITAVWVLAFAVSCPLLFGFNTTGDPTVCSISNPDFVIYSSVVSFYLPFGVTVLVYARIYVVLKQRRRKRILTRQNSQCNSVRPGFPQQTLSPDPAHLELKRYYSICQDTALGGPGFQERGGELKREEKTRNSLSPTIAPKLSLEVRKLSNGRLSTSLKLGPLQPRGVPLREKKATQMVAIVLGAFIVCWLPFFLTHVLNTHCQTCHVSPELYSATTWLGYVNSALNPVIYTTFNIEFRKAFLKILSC
Chain of human 5-HT2A receptor (P28223 whole entry): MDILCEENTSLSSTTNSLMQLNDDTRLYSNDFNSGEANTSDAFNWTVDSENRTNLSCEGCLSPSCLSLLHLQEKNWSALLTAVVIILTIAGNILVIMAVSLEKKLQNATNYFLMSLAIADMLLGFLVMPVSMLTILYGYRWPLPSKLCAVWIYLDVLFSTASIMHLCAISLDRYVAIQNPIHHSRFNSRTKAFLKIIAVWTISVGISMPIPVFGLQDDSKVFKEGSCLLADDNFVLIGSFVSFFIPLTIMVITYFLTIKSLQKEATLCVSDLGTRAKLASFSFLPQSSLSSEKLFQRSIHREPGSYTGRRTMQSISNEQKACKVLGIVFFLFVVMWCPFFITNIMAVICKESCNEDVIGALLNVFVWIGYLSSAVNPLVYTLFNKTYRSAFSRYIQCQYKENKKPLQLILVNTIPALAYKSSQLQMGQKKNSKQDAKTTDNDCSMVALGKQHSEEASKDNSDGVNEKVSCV

| SMILES | melting point | Ki [1] | Ki [2] | Ki [3] |
| --- | --- | --- | --- | --- |
| C/C=C/CC(=O)N[C@H]1CC[C@H](CCN2CCC(c3cccc4c3CCO4)CC2)CC1 [Example 85, (E)-Pent-3-enoic acid trans-(4-{2-[4-(2,3-dihydro-benzofuran-4-yl)-piperidin-1-yl]-ethyl}-cyclohexyl)-amide] | 196 °C | 438 nM | 5.79 nM | 77.3 nM |
| CN(C)S(=O)(=O)N[C@H]1CC[C@H](CCN2CCC(c3cccc4c3CCO4)CC2)CC1 [Example 51, N′-(trans-4-{2-[4-(2,3-Dihydro-benzofuran-4-yl)-piperidin-1-yl]-ethyl}-cyclohexyl)-N,N-dimethylsulfamide] | 122 °C | 251 nM | 9.9 nM | 19.5 nM |
| CC[C@@H](O)CC(=O)N[C@H]1CC[C@H](CCN2CCC(c3cccc4c3CCO4)CC2)CC1 [Example 81, (R)-3-Hydroxy-pentanoic acid trans-(4-{2-[4-(2,3-dihydro-benzofuran-4-yl)-piperidin-1-yl]-ethyl}-cyclohexyl)-amide] | 201 °C | 356 nM | 10 nM | 123 nM |
| COCCC(=O)N[C@H]1CC[C@H](CCN2CCC(c3ccc(F)c4occc34)CC2)CC1 [Example 67, trans-N-(4-{2-[4-(7-Fluoro-benzofuran-4-yl)-piperidin-1-yl]-ethyl}-cyclohexyl)-3-methoxy-propionamide] | 177 °C | 613 nM | 9.28 nM | 31 nM |
| O=C(CC1CC1)N[C@H]1CC[C@H](CCN2CCC(c3cccc4c3CCO4)CC2)CC1 [Example 30, trans-2-Cyclopropyl-N-(4-{2-[4-(2,3-dihydro-benzofuran-4-yl)-piperidin-1-yl]-ethyl}-cyclohexyl)-acetamide] | 189 °C | 268 nM | 2.9 nM | 28.7 nM |
| CC#CC(=O)N[C@H]1CC[C@H](CCN2CCC(c3cccc4c3CCO4)CC2)CC1 [Example 86, But-2-ynoic acid trans-(4-{2-[4-(2,3-dihydro-benzofuran-4-yl)-piperidin-1-yl]-ethyl}-cyclohexyl)-amide] | 195 °C | 118 nM | 7.3 nM | 45.9 nM |
| Cc1cc(C(=O)N[C@H]2CC[C@H](CCN3CCC(c4cccc5c4CCO5)CC3)CC2)on1 [Example 41, 3-Methyl-isoxazole-5-carboxylic acid trans-(4-{2-[4-(2,3-dihydro-benzofuran-4-yl)-piperidin-1-yl]-ethyl}-cyclohexyl)-amide] | 215 °C | 124 nM | 10.8 nM | 36.4 nM |
| CC(C)C(=O)N[C@H]1CC[C@H](CCN2CCC(c3cccc4c3CCO4)CC2)CC1 [Example 23, trans-N-(4-{2-[4-(2,3-Dihydro-benzofuran-4-yl)-piperidin-1-yl]-ethyl}-cyclohexyl)-isobutyramide] | 212 °C | 285 nM | 8 nM | 19.9 nM |
| N#CCC(=O)N[C@H]1CC[C@H](CCN2CCC(c3cccc4c3CCO4)CC2)CC1 [Example 55, trans-2-Cyano-N-(4-{2-[4-(2,3-dihydro-benzofuran-4-yl)-piperidin-1-yl]-ethyl}-cyclohexyl)-acetamide] | 194 °C | 140 nM | 3.6 nM | 38.7 nM |
| COCC(=O)N[C@H]1CC[C@H](CCN2CCC(c3cccc4c3CCO4)CC2)CC1 [Example 14, trans-N-(4-{2-[4-(2,3-Dihydro-benzofuran-4-yl)-piperidin-1-yl]-ethyl}-cyclohexyl)-2-methoxy-acetamide] | 156 °C | 671 nM | 22.7 nM | 27.7 nM |
| O=C(N[C@H]1CC[C@H](CCN2CCC(c3cccc4c3CCO4)CC2)CC1)c1ccc(-n2cccn2)cc1 [Example 68, trans-N-(4-{2-[4-(2,3-Dihydro-benzofuran-4-yl)-piperidin-1-yl]-ethyl}-cyclohexyl)-4-pyrazol-1-yl-benzamide] | 258.5 °C | 1700 nM | 8.65 nM | 27.4 nM |
| O=C(N[C@H]1CC[C@H](CCN2CCC(c3cccc4c3CCO4)CC2)CC1)C1CCC1 [Example 26, Cyclobutanecarboxylic acid trans-(4-{2-[4-(2,3-dihydro-benzofuran-4-yl)-piperidin-1-yl]-ethyl}-cyclohexyl)-amide] | 197 °C | 145 nM | 8.4 nM | 20.4 nM |
| CCC(=O)N[C@H]1CC[C@H](CCN2CCC(c3cccc4c3CCO4)CC2)CC1 [Example 13, trans-N-(4-{2-[4-(2,3-Dihydro-benzofuran-4-yl)-piperidin-1-yl]-ethyl}-cyclohexyl)-propionamide] | 192 °C | 346 nM | 4.6 nM | 34.3 nM |
| O=C(N[C@H]1CC[C@H](CCN2CCC(c3cccc4c3CCO4)CC2)CC1)c1ccc2ncccc2c1 [Example 78, Quinoline-6-carboxylic acid trans-(4-{2-[4-(2,3-dihydro-benzofuran-4-yl)-piperidin-1-yl]-ethyl}-cyclohexyl)-amide] | 238 °C | 3250 nM | 4.35 nM | 30.7 nM |
| CCC(=O)N[C@H]1CC[C@H](CCN2CCC(c3cccc4occc34)CC2)CC1 [Example 9, trans-N-{4-[2-(4-Benzofuran-4-yl-piperidin-1-yl)-ethyl]-cyclohexyl}-propionamide] | 170 °C | 91.9 nM | 2.2 nM | 5.6 nM |
| CCS(=O)(=O)N[C@H]1CC[C@H](CCN2CCC(c3cccc4c3CCO4)CC2)CC1 [Example 48, Ethanesulfonic acid trans-(4-{2-[4-(2,3-dihydro-benzofuran-4-yl)-piperidin-1-yl]-ethyl}-cyclohexyl)-amide] | 131 °C | 333 nM | 11.2 nM | 34.8 nM |
| CS(=O)(=O)CC(=O)N[C@H]1CC[C@H](CCN2CCC(c3cccc4c3CCO4)CC2)CC1 [Example 15, trans-N-(4-{2-[4-(2,3-Dihydro-benzofuran-4-yl)-piperidin-1-yl]-ethyl}-cyclohexyl)-2-methanesulfonyl-acetamide] | 211 °C | 419 nM | 4.9 nM | 35.9 nM |
| O=C(CC1CCOCC1)N[C@H]1CC[C@H](CCN2CCC(c3ccc(F)c4occc34)CC2)CC1 [Example 66, trans-N-(4-{2-[4-(7-Fluoro-benzofuran-4-yl)-piperidin-1-yl]-ethyl}-cyclohexyl)-2-(tetrahydro-pyran-4-yl)-acetamide] | 187.5 °C | 616 nM | 20.1 nM | 30.9 nM |
| O=CN[C@H]1CC[C@H](CCN2CCC(c3cccc4c3CCO4)CC2)CC1 [Example 87, trans-N-(4-{2-[4-(2,3-Dihydro-benzofuran-4-yl)-piperidin-1-yl]-ethyl}-cyclohexyl)-formamide] | 142 °C | 167 nM | 11.5 nM | 107 nM |
| CCCCC(=O)N[C@H]1CC[C@H](CCN2CCC(c3cccc4c3CCO4)CC2)CC1 [Example 76, Pentanoic acid trans-(4-{2-[4-(2,3-dihydro-benzofuran-4-yl)-piperidin-1-yl]-ethyl}-cyclohexyl)-amide] | 186 °C | 411 nM | 4.57 nM | 103 nM |
